One series relates to SUDHL5 cells. Briefly: Cell viability, 72 h compound treatment (PrestoBlue), SUDHL5. The series is classed as cell-based, human. The note with it: SUDHL5, 72 h. On the procedure: Thirty thousand cells were seeded in 100 μl of media per well of a 96-well plate and treated with drug for the indicated times and doses. A resazurin-based indicator of cell health (PrestoBlue; P50200, Thermo Fisher) was added for 1.5 h at 37°C, at which point the fluorescence ratio at 560/590 nm was recorded (Tecan Spark). The background fluorescence was subtracted, and the signal was normalized to DMSO-treated cells. IC50 measurements on cell lines were calculated using at least three biological replicates (separate cell passages). Fit of dose–response curves to data and statistical analysis was performed using GraphPad PRISM using the four-parameter log(inhibitor) vs response function.

A further series addresses T1, CBP (Homo sapiens, UniProt Q92793).
T1 construct: endogenous in cells; host or cells: SUDHL5
In words: Global proteome profiling in SUDHL5, CBP abundance. The series is classed as cell-based. The following applies: SUDHL5, 10 nM, 24 hours. As to the method: SUDHL5 cells (6M cells in 6 mL RPMI-1640 media supplemented with 10% FBS and 1x pen-strep) were treated with 0.1% DMSO, 10 nM TCIP3, 10 nM Neg1, 10 nM Neg2, or 250 nM dCBP1 (1000x stocks in DMSO for final 0.1% DMSO concentration) in 3 biologically independent replicates. The cells were washed twice with TBS (50 mM Tris, pH 8.5, and 150 mM NaCl) and then stored at −80 °C until use.
Lysis was performed by first thermally denaturing the samples in residual wash buffer for 5 min at 95 °C. Fresh Lysis Buffer (8 M urea, 150 mM NaCl, and 100 mM HEPES, pH 8.0, in MS-grade water) was then added, and the lysates were homogenized using needle ultrasonication and then normalized to 30 μg of 2 mg/mL by diluting with Lysis Buffer via a Bradford protein concentration assay (Bio-Rad 5000006) in technical duplicates. […]
Samples were then desalted using SOLAμ SPE HRP Peptide Desalting columns (Thermo 60209–001) with a Positive Pressure Manifold and all MS-grade reagents. […] The samples were then reconstituted in 0.1% FA in water and then analyzed by LC-MS/MS (see below).
The reconstituted desalted peptides were then analyzed using a nanoElute 2 UHPLC (Bruker Daltonics, Bremen, Germany) coupled to a timsTOF HT (Bruker Daltonics, Bremen, Germany) via a CaptiveSpray nano-electrospray source. […]

T1 sequence (Q92793 whole entry): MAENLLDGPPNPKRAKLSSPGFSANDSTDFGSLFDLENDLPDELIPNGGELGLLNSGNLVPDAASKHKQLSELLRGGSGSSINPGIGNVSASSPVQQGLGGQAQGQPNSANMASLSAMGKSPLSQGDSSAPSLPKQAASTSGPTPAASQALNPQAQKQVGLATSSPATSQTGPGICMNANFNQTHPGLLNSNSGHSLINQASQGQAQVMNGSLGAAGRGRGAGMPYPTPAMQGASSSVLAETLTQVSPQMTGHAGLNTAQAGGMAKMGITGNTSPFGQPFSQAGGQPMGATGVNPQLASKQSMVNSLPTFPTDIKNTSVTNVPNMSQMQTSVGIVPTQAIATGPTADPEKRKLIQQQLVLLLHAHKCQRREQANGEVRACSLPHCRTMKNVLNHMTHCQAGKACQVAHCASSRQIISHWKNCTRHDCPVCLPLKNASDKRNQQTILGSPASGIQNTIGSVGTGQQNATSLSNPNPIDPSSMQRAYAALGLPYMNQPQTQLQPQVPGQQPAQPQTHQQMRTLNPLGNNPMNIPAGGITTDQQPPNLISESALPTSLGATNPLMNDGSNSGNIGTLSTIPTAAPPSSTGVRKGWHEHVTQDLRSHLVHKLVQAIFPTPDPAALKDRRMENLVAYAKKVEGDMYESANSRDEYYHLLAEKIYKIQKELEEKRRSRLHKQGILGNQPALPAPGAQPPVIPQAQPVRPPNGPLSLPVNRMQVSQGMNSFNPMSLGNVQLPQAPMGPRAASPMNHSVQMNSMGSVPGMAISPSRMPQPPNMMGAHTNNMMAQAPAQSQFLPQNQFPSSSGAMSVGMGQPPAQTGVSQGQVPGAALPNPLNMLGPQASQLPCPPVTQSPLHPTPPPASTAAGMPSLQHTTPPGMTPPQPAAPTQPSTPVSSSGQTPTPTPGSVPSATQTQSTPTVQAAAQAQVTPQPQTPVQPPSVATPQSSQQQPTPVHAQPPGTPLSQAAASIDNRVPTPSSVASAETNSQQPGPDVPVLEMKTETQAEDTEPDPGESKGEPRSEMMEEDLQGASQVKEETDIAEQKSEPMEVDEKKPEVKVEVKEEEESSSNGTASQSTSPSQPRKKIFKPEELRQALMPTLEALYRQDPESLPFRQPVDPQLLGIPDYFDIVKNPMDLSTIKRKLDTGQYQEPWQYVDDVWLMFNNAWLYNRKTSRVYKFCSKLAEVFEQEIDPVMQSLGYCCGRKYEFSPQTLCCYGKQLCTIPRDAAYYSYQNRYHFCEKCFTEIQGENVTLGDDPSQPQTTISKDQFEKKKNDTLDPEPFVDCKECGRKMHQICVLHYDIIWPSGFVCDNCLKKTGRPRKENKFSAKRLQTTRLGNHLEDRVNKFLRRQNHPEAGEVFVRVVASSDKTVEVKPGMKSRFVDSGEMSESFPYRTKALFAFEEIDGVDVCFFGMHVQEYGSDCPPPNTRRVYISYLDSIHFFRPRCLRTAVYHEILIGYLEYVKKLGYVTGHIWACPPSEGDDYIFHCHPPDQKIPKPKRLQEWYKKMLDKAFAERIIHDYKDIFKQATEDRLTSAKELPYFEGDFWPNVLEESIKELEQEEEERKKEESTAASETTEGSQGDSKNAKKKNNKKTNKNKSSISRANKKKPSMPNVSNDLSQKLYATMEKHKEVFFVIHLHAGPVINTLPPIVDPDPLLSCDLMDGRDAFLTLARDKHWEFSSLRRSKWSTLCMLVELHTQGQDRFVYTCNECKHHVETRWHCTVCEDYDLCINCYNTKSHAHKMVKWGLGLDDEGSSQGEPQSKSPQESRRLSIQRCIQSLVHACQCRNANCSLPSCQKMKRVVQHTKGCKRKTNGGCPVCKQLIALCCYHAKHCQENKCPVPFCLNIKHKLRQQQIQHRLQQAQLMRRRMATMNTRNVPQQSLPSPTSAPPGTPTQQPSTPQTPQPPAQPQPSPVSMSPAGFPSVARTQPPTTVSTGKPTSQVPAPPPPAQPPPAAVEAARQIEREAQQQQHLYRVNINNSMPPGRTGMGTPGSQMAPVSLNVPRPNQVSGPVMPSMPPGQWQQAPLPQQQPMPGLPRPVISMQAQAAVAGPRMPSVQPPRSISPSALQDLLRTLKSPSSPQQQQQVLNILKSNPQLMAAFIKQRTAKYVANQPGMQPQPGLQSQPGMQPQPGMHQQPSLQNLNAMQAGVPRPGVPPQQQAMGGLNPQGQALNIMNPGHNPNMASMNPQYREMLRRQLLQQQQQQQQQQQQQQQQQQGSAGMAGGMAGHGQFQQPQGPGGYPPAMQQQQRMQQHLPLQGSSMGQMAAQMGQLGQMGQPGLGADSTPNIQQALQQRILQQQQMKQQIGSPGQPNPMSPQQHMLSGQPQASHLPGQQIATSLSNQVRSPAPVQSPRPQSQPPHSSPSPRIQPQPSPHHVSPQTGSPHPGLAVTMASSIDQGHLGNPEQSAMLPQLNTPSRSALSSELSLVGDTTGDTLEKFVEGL

On to `CNC(=O)COc1cc2cc(Nc3nc(N4CCC(C(=O)N5CCN(CCC(=O)N6CCC(n7nc(N8CCCc9cc(-c%10cnn(C)c%10)c(C(F)F)cc98)c8c7CCN(C(=O)NC)C8)CC6)CC5)CC4)ncc3Cl)cc(OC)c2n(C)c1=O` [TCIP3], for which the IC50 with SUDHL5 cells (Homo sapiens, SU-DHL-5, read-out: IC50 cell viability / antiproliferation) was 0.8 nM. For the same compound, in the series on SUDHL5 cells, the “IC50 cell viability / antiproliferation” value is listed as “sub-nanomolar”, the “times more cytotoxic than either NEG1 or NEG2” value is “over 1,000 times”, the “times more potent than A-485” value is 238 times and the “times more potent than dCBP-1” value is recorded as 12 times. The “CBP protein abundance log2(fold change)” value at CBP is recorded as 0.58.

The values above are taken from paper doi:10.1101/2025.03.14.643404, “A Bivalent Molecular Glue Linking Lysine Acetyltransferases to Oncogene-induced Cell Death” (bioRxiv, 2025).
